Results reported in US20220030868A1, “FUNGICIDAL HALOMETHYL KETONES AND HYDRATES” (FMC CORPORATION, priority 2018, published 2022).

How the values were obtained:
Phakopsora pachyrhizi = experiment: Test A: test suspension sprayed on soybean seedlings one day before inoculation with Phakopsora pachyrhizi spores (Asian soybean rust), visual disease rating; format: in vivo; conditions: 100 = 100% disease control, 0 = no control
Outline: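 Soybean seedlings were sprayed to run-off with test suspension (acetone 3% of volume, acetone/water 50/50, 250 ppm PEG400) and inoculated with rust spores one day later. Incubation: 24 h saturated atmosphere at 22° C, then 8 days growth chamber at 22° C; scores 0–100 relative to untreated controls.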

[1] = test system: Puccinia recondita f. sp. tritici; experiment: Test B: test suspension sprayed on wheat seedlings one day before inoculation with Puccinia recondita f. sp. tritici spores (wheat leaf rust), disease rating; format: in vivo; conditions: 100 = 100% disease control, 0 = no control
Outline: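 Wheat seedlings were sprayed to run-off with compound suspended in 50/50 acetone/water containing 250 ppm PEG400, then inoculated with P. recondita f. sp. tritici spores the next day. Plants were held 24 h in saturated air at 20 °C, then 6 days in a growth chamber at 20 °C. Disease control was rated 0–100% relative to controls, with some entries run at 50 or 10 ppm.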

Compound | Test A rating (disease control) (Phakopsora pachyrhizi; 10 ppm test suspension) [%] | Test B rating (disease control) ([1]; 10 ppm test suspension) [%] | also measured
CCOC(=O)C1CCN(Cc2ccc(O/C=C(\OCC)C(F)(F)F)cc2)CC1 [compound 268] | 99 | 0 | –
CCOC(=O)C=CCOc1ccc(O/C=C(\OCC)C(F)(F)F)cc1 [compound 96] | 13 | 0 | –
CN(C)S(=O)(=O)c1ccc(OCC2(C(F)(F)F)OCCO2)cc1 [compound 25] | 0 | 0 | –
O=C(OCC1CCCCC1)c1cnn(Cc2ccc(OCC3(C(F)(F)F)OCCO3)cc2)c1 [compound 272] | 100 | 0 | –
CCO/C(=C\Oc1ccc(C=O)cc1)C(F)(F)F [compound 148] | 0 | 0 | –
N#Cc1ccc(OCC(O)(O)C(F)(F)F)cc1 [Compound 142] | 92 | 100 | –
CSc1nccc(Cc2ccc(OCC3(C(F)(F)F)OCCO3)cc2)n1 [compound 281] | – | – | Test A rating (disease control) (Phakopsora pachyrhizi; 50 ppm test suspension): 95%; Test B rating (disease control) ([1]; 50 ppm test suspension): 98%
CCO/C(=C\Oc1ccc(Cn2ccc(C(=O)OCCOC)n2)cc1)C(F)(F)F [compound 360] | 100 | 0 | –
CCOC(=O)c1cnn(Cc2ccc(COCC3(C(F)(F)F)OCCO3)cc2)c1 [compound 141] | 0 | 0 | –
CCOC(=O)c1cnn(Cc2ccc(O/C=C(\OCC(F)(F)F)C(F)(F)F)cc2)c1 [compound 298] | 0 | 0 | –
CCOC(=O)c1cnn(-c2ccc(O/C=C(\OCC)C(F)(F)F)cc2)c1 [compound 316] | – | – | Test A rating (disease control) (Phakopsora pachyrhizi; 50 ppm test suspension): 100%; Test B rating (disease control) ([1]; 50 ppm test suspension): 9%
CCOC(=O)c1cnn(Cc2ccc(OCC(O)(NO)C(F)(F)F)cc2)c1 (stereo not drawn) [Compound 10] | 100 | 86 | –
CCOC(=O)c1cnn(Cc2ccc(O/C=C(\OC)C(F)(F)F)cc2)c1 [compound 53] | – | – | Test A rating (disease control) (Phakopsora pachyrhizi; 50 ppm test suspension): 100%; Test B rating (disease control) ([1]; 50 ppm test suspension): 67%
CCOC(=O)c1cnn(Cc2ccc(OCC3(C(F)(F)F)OCCO3)nc2)c1 [compound 168] | – | – | pest or weed control at 10 ppm (Phakopsora pachyrhizi; Phakopsora pachyrhizi, 10 ppm test suspension): 0%; pest or weed control at 10 ppm ([1]; 10 ppm test suspension): 0%
C[Si](C)(C)CCOc1nccc(Cc2ccc(OCC3(C(F)(F)F)OCCO3)cc2)n1 [compound 314] | – | – | Test A rating (disease control) (Phakopsora pachyrhizi; 50 ppm test suspension): 0%; Test B rating (disease control) ([1]; 50 ppm test suspension): 0%
CCCCOC(=O)c1cnn(Cc2cccc(O/C=C(\OCC)C(F)(F)F)c2)c1 [compound 339] | 100 | 0 | –
CC(=O)c1ccc(OCC(O)(O)C(F)(F)F)cc1 [Compound 80] | – | – | Test A rating (disease control) (Phakopsora pachyrhizi; 50 ppm test suspension): 99%; Test B rating (disease control) ([1]; 50 ppm test suspension): 100%
N#CCc1ccc(OCC2(C(F)(F)F)OCCO2)cc1 [compound 239] | 0 | 0 | –
O=C(OCC(=O)C1CCCCC1)c1cnn(Cc2ccc(OCC3(C(F)(F)F)OCCO3)cc2)c1 [compound 202] | 100 | 0 | –
OC(O)(COc1ccc(OCC(O)(O)C(F)(F)F)cc1)C(F)(F)F [Compound 2] | 77 | 32 | –
C#CCOC(=O)c1cnn(Cc2ccc(OCC3(C(F)(F)F)OCCO3)cc2)c1 [compound 15] | 100 | 0 | –
CCO/C(=C\Oc1ccc(C(=O)NC2CC2)cc1)C(F)(F)F [compound 100] | 0 | 0 | –
CS(=O)(=O)c1ccc(OCC(O)(O)C(F)(F)F)cc1 [Compound 31] | 44 | 93 | –
CCO/C(=C\Oc1ccc(Cn2cc(C(=O)OC(C)C)cn2)cc1)C(F)(F)F [compound 139] | 100 | 0 | –
